{"source": "paper PMC11943016", "about": "“TBG096 Ameliorates Memory Deficiency in AD Mouse Model via Promoting Neurogenesis and Regulation of Hsc70/HK2/PKM2/LAMP2A Signaling Pathway” (International Journal of Molecular Sciences, 2025)", "key": {"PC12 cells": {"tested_on": "PC12 cells", "test": "EdU cell proliferation in PC12 cells (inhibitor experiment)", "type": "cell-based", "details": "24 h", "description": "In the inhibitor experiment of EdU cell proliferation activity, PC12 cells were seeded into each well of a 24-well plate as above for 24 h. Then, the medium in each well was replaced with 500 μL of serum-free […] containing VER155008 (inhibitor of Hsc70, 3 µM), or NH4Cl (inhibitor of lysosome, 250 µM) for 30 min according to the literature, and 500 μL of serum-free DMEM containing different samples was added and cultured for 24 h, respectively. After that, PC12 cells were treated with EdU for 2 h according to the operation steps of the BeyoClick™ EdU-488 cell proliferation detection kit (#C0071S, Beyotime Biotechnology, Shanghai, China). After cell labeling, the supernatant was removed. Then, PC12 cells were fixed, washed, and blocked, and the click reaction solution was added at room temperature for 30 min. After that, DAPI staining was performed for 10 min. Finally, PC12 cells were detected by fluorescence microscope (Olympus IX53, Tokyo, Japan)."}, "gut microbiota": {"tested_on": "gut microbiota", "test": "Gut microbiota analysis in HFD-induced AD mice", "type": "in vivo", "details": "Met 140 mg/kg", "text": "(§1) In experiments with the HFD-induced AD mouse model, a total of 60 Institute of Cancer Research (ICR) male mice aged 4 weeks from Zhejiang Academy of Medical Sciences (Hangzhou, China) were used for animal experiments (permit number: ZJU20230121). The animals were provided free access to a chow diet and water. […] The HFD and normal diet were alternated every two days to maintain freshness. Weekly measurements were taken for water intake, food intake, and body weight. In the eighteenth week, the mice underwent Y-maze and NOR tests. The Morris water maze test was conducted during the nineteenth week. After confirming the successful establishment of the AD model characterized by cognitive impairment, oral administration of treatments commenced. […] Each group had 10 mice."}, "HFD-induced AD mice": {"tested_on": "HFD-induced AD mice", "test": "Behavioral tests (Y-maze, NOR, MWM) in HFD-induced AD mice", "type": "in vivo", "text": "as §1\nThe Y-maze test is used to evaluate working memory, and the process was referenced in another report. In brief, the Y-maze consists of three black plastic arms (A, B, and C) with the same length (30 cm), width (10 cm), height (15 cm), and 120° relative to adjacent arms. Each mouse is placed facing the wall of arm A and allowed to explore the maze freely for 5 min. The behavior of mice is recorded with a video recorder, and the data are stored in ANY-MAZE software version 6.35 (Stoelting, Chicago, IL, USA). The total number of entries made by the mice into each arm—considered as either whole or half-body entries—is recorded. An alternation is defined as a mouse moving through all three arms without returning to the initial arm on the third visit. Alternation: number of alternations/(number of arm entries − 2) × 100%.\nThe NOR test is utilized to assess the working memory capabilities of mice. The NOR apparatus consists of an open, black plastic box, two identical objects, and one novel object. The activity of the mice within the open field is captured and recorded using a video recorder, with data subsequently stored in ANY-MAZE software. The test is conducted over a span of two days, incorporating habituation, training, and testing stages. During the habituation phase, the mice are placed in the box devoid of any objects, allowing them to explore freely for a duration of five min. Following a 24 h interval, the NOR test is administered, which consists of both the training and testing phases. In the training phase, each mouse is positioned in the central area of the box, where two identical objects are placed equidistant from the mouse. Each training session lasts for five minutes. After a one-hour break, one of the identical objects is replaced with a new, distinct object, and the exploration duration for each mouse is recorded. Exploration is defined by the time a mouse spends touching or sniffing an object. The exploration times during both the training and testing phases are documented via video recording, and the data are organized within ANY-MAZE software. The object recognition index was defined as follows: (time spent on the new object)/(time spent on the old object + time spent on the new object) × 100%. The data are calculated by ANY-MAZE software.\nThe MWM test is used to measure spatial memory and long-term memory. The whole MWM equipment includes a circular water tank (diameter 1.5 m, depth 50 cm) with warm water (22 ± 1 °C) 35 cm deep, a platform (diameter 14 cm, immersed 1 cm in water), a camera, and a computer for data analysis. The MWM test is conducted over five 5 days: 4 days for training and 1 day for testing. The pool is divided into four quadrants, and at least three quadrants are tested at a time. In the training stage, the mouse is placed on the wall of one of the four quadrants and allowed to swim and find the platform hidden underwater within 120 s. If the mouse cannot find the platform, the experimenter will guide it and let it stay on the platform for 10 s. The experiment lasts for 4 days. On the fifth day of the test phase, the platform is removed, and each mouse is placed in a similar starting position and allowed to move freely for 90 s. […]"}}}
{"smiles": "O=C(SCCCCCCSCCCC(F)(F)F)c1cccc(O)c1O", "note": "[TBG096]", "values": [{"measurement": "EdU cell proliferation activity", "setting": "PC12 cells", "result": "promoting PC12 cell proliferation"}, {"measurement": "abundance of Firmicutes (decreased by HFD) and Bacteroidota (increased by HFD)", "setting": "gut microbiota; TBG096 20 mg/kg", "result": "reversed"}, {"measurement": "abundance of Ligilactobacillus", "setting": "gut microbiota; TBG096 5 and 20 mg/kg", "result": "improved"}, {"measurement": "alternation behavior, Y-maze test", "setting": "HFD-induced AD mice; 0.1, 5, and 20 mg/kg, vs HFD-only, 20 mg/kg most pronounced", "result": "significantly improved"}, {"measurement": "optimal dose in NOR test", "setting": "HFD-induced AD mice; HFD-induced AD mice", "result": 5, "unit": "mg/kg"}, {"measurement": "dosage of optimal therapeutic effect on memory", "setting": "HFD-induced AD mice; HFD-induced AD mice, comparable to Met", "result": 20, "unit": "mg/kg"}, {"measurement": "number of arm entries, Y-maze test", "setting": "HFD-induced AD mice; TBG096 0.1, 5, 20 mg/kg, Met 140 mg/kg, 54 days", "result": "No significant differences"}, {"measurement": "escape latency, MWM test phase", "setting": "HFD-induced AD mice; fifth day", "result": "significant reductions"}, {"measurement": "escape latency, MWM training phase", "setting": "HFD-induced AD mice; fourth day, Met 140 mg/kg and all doses of TBG096", "result": "markedly reduced"}, {"measurement": "discrimination index, NOR test phase", "setting": "HFD-induced AD mice; vs HFD-only group", "result": "higher"}, {"measurement": "number of platform crossings, MWM test phase", "setting": "HFD-induced AD mice; vs HFD-only group", "result": "increased significantly"}]}
